Test results published in the NIST ThermoML archive (doi:10.1021/acs.jced.7b00242).
Numbers after ± are expanded uncertainties.

Key:
[1] = refractive index (Na D-line) (dimensionless)
[2] = 293.15 K; 101 kPa; Liquid; Standard Abbe refractometry
[3] = 298.15 K; 101 kPa; Liquid; Standard Abbe refractometry
[4] = 303.15 K; 101 kPa; Liquid; Standard Abbe refractometry
[5] = 313.15 K; 101 kPa; Liquid; Standard Abbe refractometry
[6] = 323.15 K; 101 kPa; Liquid; Standard Abbe refractometry
[7] = 333.15 K; 101 kPa; Liquid; Standard Abbe refractometry
[8] = 343.15 K; 101 kPa; Liquid; Standard Abbe refractometry
[9] = 353.15 K; 101 kPa; Liquid; Standard Abbe refractometry
[10] = 363.15 K; 101 kPa; Liquid; Standard Abbe refractometry
[11] = 293.15 K; 101 kPa; Liquid; Vibrating tube method
[12] = 298.15 K; 101 kPa; Liquid; Concentric cylinders viscometry
[13] = 298.15 K; 101 kPa; Liquid; Vibrating tube method
[14] = 298.15 K; Liquid; Ring tensiometer
[15] = 303.15 K; 101 kPa; Liquid; Concentric cylinders viscometry
[16] = 303.15 K; 101 kPa; Liquid; Vibrating tube method
[17] = 303.15 K; Liquid; Ring tensiometer
[18] = 313.15 K; 101 kPa; Liquid; Concentric cylinders viscometry
[19] = 313.15 K; 101 kPa; Liquid; Vibrating tube method
[20] = 313.15 K; Liquid; Ring tensiometer
[21] = 323.15 K; 101 kPa; Liquid; Concentric cylinders viscometry
[22] = 323.15 K; 101 kPa; Liquid; Vibrating tube method
[23] = 323.15 K; Liquid; Ring tensiometer
[24] = 333.15 K; 101 kPa; Liquid; Concentric cylinders viscometry
[25] = 333.15 K; 101 kPa; Liquid; Vibrating tube method
[26] = 333.15 K; Liquid; Ring tensiometer
[27] = 343.15 K; 101 kPa; Liquid; Concentric cylinders viscometry
[28] = 343.15 K; 101 kPa; Liquid; Vibrating tube method
[29] = 343.15 K; Liquid; Ring tensiometer
[30] = 353.15 K; 101 kPa; Liquid; Concentric cylinders viscometry
[31] = 353.15 K; 101 kPa; Liquid; Vibrating tube method
[32] = 353.15 K; Liquid; Ring tensiometer
[33] = 363.15 K; 101 kPa; Liquid; Concentric cylinders viscometry
[34] = 363.15 K; 101 kPa; Liquid; Vibrating tube method
[35] = 363.15 K; Liquid; Ring tensiometer

| SMILES | mass density [13] [kg/m3] | mass density [16] [kg/m3] | surface tension liquid-gas [17] [mN/m] | viscosity [18] [mPa·s] | mass density [19] [kg/m3] | surface tension liquid-gas [20] [mN/m] | viscosity [21] [mPa·s] | mass density [22] [kg/m3] | surface tension liquid-gas [23] [mN/m] | viscosity [24] [mPa·s] | mass density [25] [kg/m3] | surface tension liquid-gas [26] [mN/m] | viscosity [27] [mPa·s] | mass density [28] [kg/m3] | surface tension liquid-gas [29] [mN/m] | viscosity [30] [mPa·s] | mass density [31] [kg/m3] | surface tension liquid-gas [32] [mN/m] | mass density [34] [kg/m3] | Normal melting temperature (Crystal; DTA) [°C] | also measured |
| --- | --- | --- | --- | --- | --- | --- | --- | --- | --- | --- | --- | --- | --- | --- | --- | --- | --- | --- | --- | --- | --- |
| CCCCCCCCCCn1cc[n+](C)c1.O=S(=O)([N-]S(=O)(=O)C(F)(F)F)C(F)(F)F | 1278.4 ± 20 | 1274.2 ± 20 | 29.2 ± 0.9 | 50.86 ± 8.1 | 1265.3 ± 20 | 28.3 ± 0.9 | 34.51 ± 5.5 | 1256.3 ± 20 | 27.5 ± 0.9 | 24.5 ± 3.9 | 1247.5 ± 20 | 26.9 ± 0.9 | 18.08 ± 2.9 | 1239.4 ± 20 | 26.3 ± 0.9 | 13.78 ± 2.2 | 1230.6 ± 20 | 25.7 ± 0.9 | 1222.3 ± 20 | 3.04 ± 1.1 | refractive index [1, 2]: 1.4366 ± 0.004; refractive index [1, 3]: 1.4351 ± 0.004; refractive index [1, 4]: 1.4336 ± 0.004; refractive index [1, 5]: 1.4306 ± 0.004; refractive index [1, 6]: 1.4278 ± 0.004; refractive index [1, 7]: 1.425 ± 0.004; refractive index [1, 8]: 1.4222 ± 0.004; refractive index [1, 9]: 1.4194 ± 0.004; refractive index [1, 10]: 1.4166 ± 0.004; mass density (273.15 K; 101 kPa; Liquid; Vibrating tube method): 1292.7 ± 20 kg/m3; mass density (289.15 K; 101 kPa; Liquid; Vibrating tube method): 1287.3 ± 20 kg/m3; viscosity (293.15 K; 101 kPa; Liquid; Concentric cylinders viscometry): 139.9 ± 22 mPa·s; mass density [11]: 1282.3 ± 20 kg/m3; viscosity [12]: 101.2 ± 16 mPa·s; surface tension liquid-gas [14]: 29.8 ± 0.9 mN/m; viscosity [15]: 79.17 ± 13 mPa·s; viscosity [33]: 10.79 ± 1.7 mPa·s; surface tension liquid-gas [35]: 25.2 ± 0.9 mN/m |
| CCCCCCCCCCCCn1cc[n+](C)c1.O=S(=O)([N-]S(=O)(=O)C(F)(F)F)C(F)(F)F | 1248 ± 20 | 1242 ± 20 | 27.7 ± 0.9 | 63.54 ± 10 | 1232.2 ± 20 | 26.9 ± 0.9 | 42.41 ± 6.8 | 1224.1 ± 20 | 25.9 ± 0.9 | 29.67 ± 4.8 | 1216 ± 20 | 24.9 ± 0.9 | 21.63 ± 3.5 | 1208.1 ± 20 | 24.1 ± 0.9 | 16.31 ± 2.6 | 1200 ± 20 | 23.3 ± 0.9 | 1191.8 ± 20 | 22.50 ± 1.1 | refractive index [1, 2]: 1.4385 ± 0.004; refractive index [1, 3]: 1.437 ± 0.004; refractive index [1, 4]: 1.4354 ± 0.004; refractive index [1, 5]: 1.4324 ± 0.004; refractive index [1, 6]: 1.4295 ± 0.004; refractive index [1, 7]: 1.4265 ± 0.004; refractive index [1, 8]: 1.4237 ± 0.004; refractive index [1, 9]: 1.4209 ± 0.004; refractive index [1, 10]: 1.4179 ± 0.004; mass density [11]: 1253.1 ± 20 kg/m3; viscosity [12]: 130.5 ± 21 mPa·s; surface tension liquid-gas [14]: 28.1 ± 0.9 mN/m; viscosity [15]: 101.1 ± 16 mPa·s; viscosity [33]: 12.65 ± 2 mPa·s; surface tension liquid-gas [35]: 22.5 ± 0.9 mN/m |
| CCCCCCCCCCCC[n+]1ccn(C)c1.[Cl-] [1-dodecyl-3-methylimidazolium chloride] |  |  |  |  |  |  |  |  |  |  |  |  |  |  |  |  |  |  |  | 96.22 ± 1.1 |  |
| CCCCCCCCCCn1cc[n+](C)c1.[Cl-] [1-decyl-3-methylimidazolium chloride] | 984 ± 20 | 979.7 ± 20 | 34 ± 0.9 |  | 974.4 ± 20 | 30.2 ± 0.9 |  | 968.1 ± 20 | 28.4 ± 0.9 |  | 962.4 ± 20 | 27.8 ± 0.9 |  | 956.4 ± 20 | 27 ± 0.9 |  | 950.7 ± 20 | 26.2 ± 0.9 | 943.8 ± 20 | 28.96 ± 1.1 | refractive index ([1]; 293.15 K; 100 kPa; Liquid; Standard Abbe refractometry): 1.5002 ± 0.0048; refractive index ([1]; 298.15 K; 100 kPa; Liquid; Standard Abbe refractometry): 1.4988 ± 0.0054; refractive index ([1]; 303.15 K; 100 kPa; Liquid; Standard Abbe refractometry): 1.4972 ± 0.0058; refractive index ([1]; 313.15 K; 100 kPa; Liquid; Standard Abbe refractometry): 1.4937 ± 0.0064; refractive index ([1]; 323.15 K; 100 kPa; Liquid; Standard Abbe refractometry): 1.4897 ± 0.0064; refractive index ([1]; 333.15 K; 100 kPa; Liquid; Standard Abbe refractometry): 1.4864 ± 0.0068; refractive index ([1]; 343.15 K; 100 kPa; Liquid; Standard Abbe refractometry): 1.4834 ± 0.0074; refractive index ([1]; 353.15 K; 100 kPa; Liquid; Standard Abbe refractometry): 1.4806 ± 0.0078; refractive index ([1]; 363.15 K; 100 kPa; Liquid; Standard Abbe refractometry): 1.4788 ± 0.009; viscosity (313.15 K; 100 kPa; Liquid; Concentric cylinders viscometry): 3716 ± 630 mPa·s; viscosity (323.15 K; 100 kPa; Liquid; Concentric cylinders viscometry): 1613 ± 270 mPa·s; viscosity (333.15 K; 100 kPa; Liquid; Concentric cylinders viscometry): 778.9 ± 130 mPa·s; viscosity (343.15 K; 100 kPa; Liquid; Concentric cylinders viscometry): 411.2 ± 67 mPa·s; viscosity (353.15 K; 100 kPa; Liquid; Concentric cylinders viscometry): 233.7 ± 38 mPa·s; viscosity (363.15 K; 100 kPa; Liquid; Concentric cylinders viscometry): 141.7 ± 23 mPa·s; surface tension liquid-gas [35]: 25.5 ± 0.9 mN/m |
| CCCCCCCCCCCCCCn1cc[n+](C)c1.O=S(=O)([N-]S(=O)(=O)C(F)(F)F)C(F)(F)F |  | 1197.1 ± 20 |  | 83.54 ± 13 | 1187.6 ± 20 |  | 54.36 ± 8.7 | 1180 ± 20 |  | 37.21 ± 6 | 1171.3 ± 20 |  | 26.58 ± 4.3 | 1163.1 ± 20 |  | 19.68 ± 3.1 | 1154.6 ± 20 |  | 1146.5 ± 20 | 34.4 ± 1.1 | refractive index ([1]; 303.15 K; 101 kPa; Metastable liquid; Standard Abbe refractometry): 1.4384 ± 0.004; refractive index ([1]; 313.15 K; 101 kPa; Standard Abbe refractometry; Liquid): 1.4352 ± 0.004; refractive index ([1]; 323.15 K; 101 kPa; Standard Abbe refractometry; Liquid): 1.4322 ± 0.004; refractive index ([1]; 333.15 K; 101 kPa; Standard Abbe refractometry; Liquid): 1.4292 ± 0.004; refractive index ([1]; 343.15 K; 101 kPa; Standard Abbe refractometry; Liquid): 1.4262 ± 0.004; refractive index ([1]; 353.15 K; 101 kPa; Standard Abbe refractometry; Liquid): 1.4233 ± 0.004; refractive index ([1]; 363.15 K; 101 kPa; Standard Abbe refractometry; Liquid): 1.4204 ± 0.004; surface tension liquid-gas (303.15 K; Metastable liquid; Ring tensiometer): 26.3 ± 0.9 mN/m; surface tension liquid-gas (313.15 K; Ring tensiometer; Liquid): 25.3 ± 0.9 mN/m; surface tension liquid-gas (323.15 K; Ring tensiometer; Liquid): 24.5 ± 0.9 mN/m; surface tension liquid-gas (333.15 K; Ring tensiometer; Liquid): 23.7 ± 0.9 mN/m; surface tension liquid-gas (343.15 K; Ring tensiometer; Liquid): 22.9 ± 0.9 mN/m; surface tension liquid-gas (353.15 K; Ring tensiometer; Liquid): 22.3 ± 0.9 mN/m; viscosity [33]: 15.04 ± 2.4 mPa·s; surface tension liquid-gas (363.15 K; Ring tensiometer; Liquid): 21.7 ± 0.9 mN/m |
